For one assay, the system named is actinic keratoses. The assay can be described thus: daily oral intake of D-ribose by the inventor, actinic keratoses. The format is in vivo, human. Particulars: 10 grams of D-ribose by mouth daily, after several months; inventor on themself. From the text:
Another use for D-ribose is with certain skin lesions that are the result of solar-caused degeneration of the skin by exposure to the sun. This condition is commonly referred to as actinic keratosis. […] Since 5% of these lesions degenerate into squamous cell carcinomas, the use of ribose alone would be useful. On the other hand, it also may be used as part of a topical formulation. Topical 5-fluorouracil formulations (5-fluorouracil being a pyrimidine analogue with anti-neoplastic action because certain neoplasms incorporate uracil into their ribonucleic acid more readily than in normal cells) have been used to eradicate actinic keratosis in place of “spot” cryosurgery and curettage, with as much as 5% fluorouracil used. Recently there came on the market a new microsphere-based formulation using a microsphere vehicle called Microsponge® in a topical cream containing only 0.5% fluorouracil. It is applied once daily with good results and less than 1/40th the systemic fluorouracil absorption compared to that of 5% fluorouracil. The course of treatment ranged over a 4-week period. While using D-ribose systemically by itself works slowly on presumed, non-malignant actinic keratoses and senile keratoses when malignancy is questioned (as it always must be even with a histological or clinical diagnosis to the contrary), using D-ribose systemically is not enough for every case.

For the next assay, the system named is wound or burn. The assay can be described thus: healing of wounds and burns with ribose, alone or with antibiotics. The format is in vivo. The following applies: ribose by itself, taken internally and/or placed on the skin. From the text:
TENS devices were part of patent application No. 09/545,121 as one of the non-living source energy devices and how they relate to D-ribose. Shortly before the turn of the 21st century, an important ATP precursor, D-ribose, became commercially available at prices low enough to enable it to be mass marketed. Before this Carniglia, et al, in U.S. Pat. Nos. 4,923,851 and 5,391,550 taught that ribose along with other nutrients helped heal induced skin lesions in mice but only as one of several listed precursors. […] The reason for this is that ribose is not available in quantity in food like other nutrients are. This component of ATP must be synthesized from glucose in the mitochondria in the glucose hexophosphate shunt (also called the pentose phosphate pathway) where a carbon atom is removed tediously by enzymatic action from glucose and phosphorylated over from 72 to 96 hours to provide the phosphorylated ribose radical. […]

Consider one molecule from patent US20040127428A1, “Use of D-ribose, including as a topical vehicle, to promote faster healing, including from surgical procedures” (priority 2002, published 2004).

Consider `O=C[C@H](O)[C@H](O)[C@H](O)CO` [D-ribose], for which the “large actinic keratoses on forehead and wrists” value in the assay on actinic keratoses is given as “simply disappeared”. Further, in the assay with wound or burn, the healing entry was “helps healing significantly”.
